Measurements: patent US7807663B2, “Therapeutic agents for diabetes” (Ajinomoto Co., Inc., priority 2003, dated 2010)

test system: adipose cells of rats; experiment: Evaluation of the sugar transportation activity (2-[14C(U)]-deoxy-D-glucose incorporation); assay type: cell-based, Wistar rats; conditions: concentration with reinforcing effect of 50% of that of insulin (100 nM) = 100%; rat adipose cells, 30 min pre-culture at 37° C., 5 min uptake
Description: 1. Preparation of Adipose Cells of Rats:
After the decapitation and venesection of 6 male Wistar rats (body weight: 150 to 200 g), an incision was made in the abdomen of each rat to extract 6 g in total of epididymal adipose tissues. The tissues were finely cut into 2 mm×2 mm pieces in 6 ml of KRH (Krebs-Ringer Hepes, composition: 130 mM of sodium chloride, 4.7 mM of potassium chloride, 1.2 mM of potassium dihydrogenphosphate, 1.2 mM of magnesium sulfate, 1 mM of calcium chloride and 25 mM of Hepes, pH=7.6) containing 5% of BSA (bovine serum albumin). 24 mg of collagenase (type I) was added thereto and the digestion treatment was conducted for about 40 minutes to obtain about 6 ml of isolated adipose cells. The collagenase was removed by the buffer exchange. 2% BSA/KRH solution was added to the residue for the re-suspension to obtain 45 ml of an adipose cell suspension.
2. Evaluation of the Sugar Transportation Activity:
The sugar transportation activity of the compound (I) of the present invention was evaluated with reference to a method described in a literature [Annual Review of Biochemistry, Vol. 55, p. 1059 (1986)]. In the test, 200 μL of the adipose cell suspension was poured in each polystyrene test tube, 100 μL of the solution of the test substance (by dilution of 10 mg/mL dimethyl sulfoxide solution with KRH) was added thereto, and the obtained mixture was shaken and then cultured at 37° C. for 30 minutes. The sugar transportation activity was evaluated by measuring the quantity of 2-[^14C(U)]-deoxy-D-glucose incorporated per a unit time. Namely, 2-[^14C(U)]-deoxy-D-glucose was added to the adipose cell suspension after the pre-culture (the final concentration: 0.5 μCi/sample). 5 minutes after, cytochalasin B (final concentration: 10 μM) was added to the mixture to terminate the sugar transportation. After forming a dinonyl phthalate layer, the obtained mixture was centrifuged to separate the adipose cells from the buffer. The quantity of 2-[^14C(U)]-deoxy-D-glucose contained in the adipose cell layer was determined with a liquid scintillation counter to determine the quantity of the incorporated sugar. In this evaluation system, when insulin (100 nM) having the effect of reinforcing the sugar transportation was used, the effect was about 7 times as high as that obtained in the insulin-free control group.
The results of the evaluation of the sugar transportation activity obtained by using 100 μg/mL of the compound (I) of the present invention are shown in Table 3. The sugar transportation activity in Table 3 was evaluated on the basis of the reinforcing effect of insulin (100 nM). The sugar transportation activity A in Table 3 was determined in terms of the concentration (EC50: μg/mL) of a test compound, having a reinforcing effect corresponding to 50% on the basis of the reinforcing effect of insulin (100 nM) having a reinforcing effect of 100%.
The symbols in Table 3 are as follows: • No: Compound No. in Tables 1 and 2, and • A: sugar transportation activity.

Question: COc1ccccc1[C@@H]1C2=C(CNC2=O)N[C@@H]2CCCC[C@H]2N1C(C)=O [Compound 1] was tested. Which “A: sugar transportation activity (EC50)” value did it give?
Answer: 1.3 µg/mL

Question: Which “A: sugar transportation activity (EC50)” value does the source give for CCC(=O)N1[C@@H]2CCCC[C@H]2NC2=C(C(=O)NC2)[C@H]1c1ccccc1OC [Compound 2] here?
Answer: 0.77 µg/mL

Question: How did the “A: sugar transportation activity (EC50)” value turn out when CCCC(=O)N1[C@@H]2CCCC[C@H]2NC2=C(C(=O)NC2)[C@H]1c1ccccc1OC [Compound 3] was run?
Answer: 4.6 µg/mL

Question: For COc1ccccc1[C@@H]1C2=C(CNC2=O)N[C@@H]2CCCC[C@H]2N1C(=O)C1CC1 [Compound 4], which “A: sugar transportation activity (EC50)” value is on record?
Answer: 0.5 µg/mL

Question: For COc1ccccc1[C@@H]1C2=C(CNC2=O)N[C@@H]2CCCC[C@H]2N1C(=O)C(F)(F)F [Compound 5], which “A: sugar transportation activity (EC50)” value is on record?
Answer: 4.5 µg/mL

Question: With COc1ccccc1[C@@H]1C2=C(CNC2=O)N[C@@H]2CCCC[C@H]2N1C(=O)C(F)(F)C(F)(F)F [Compound 7] as the molecule, how does the “A: sugar transportation activity (EC50)” value read?
Answer: 9.5 µg/mL

Question: With COc1ccccc1[C@@H]1C2=C(CNC2=O)N[C@@H]2CCCC[C@H]2N1C(=O)COC(C)=O [Compound 9] as the molecule, how does the “A: sugar transportation activity (EC50)” value read?
Answer: 5.9 µg/mL

Question: For COCC(=O)N1[C@@H]2CCCC[C@H]2NC2=C(C(=O)NC2)[C@H]1c1ccccc1OC [Compound 10], which “A: sugar transportation activity (EC50)” value is on record?
Answer: 2 µg/mL

Question: How did the “A: sugar transportation activity (EC50)” value turn out when CCOCC(=O)N1[C@@H]2CCCC[C@H]2NC2=C(C(=O)NC2)[C@H]1c1ccccc1OC [Compound 11] was run?
Answer: 2.2 µg/mL

Question: How did the “A: sugar transportation activity (EC50)” value turn out when COc1ccccc1[C@@H]1C2=C(CNC2=O)N[C@@H]2CCCC[C@H]2N1C(=O)COc1ccccc1 [Compound 12] was run?
Answer: 4.6 µg/mL

Question: With COc1ccccc1[C@@H]1C2=C(CNC2=O)N[C@@H]2CCCC[C@H]2N1C(=O)Cc1ccccc1 [Compound 13] as the molecule, how does the “A: sugar transportation activity (EC50)” value read?
Answer: 5 µg/mL

Question: CC=CC(=O)N1[C@@H]2CCCC[C@H]2NC2=C(C(=O)NC2)[C@H]1c1ccccc1OC [Compound 16] was tested. Which “A: sugar transportation activity (EC50)” value did it give?
Answer: 1.1 µg/mL

Question: How did the “A: sugar transportation activity (EC50)” value turn out when COC(=O)CCC(=O)N1[C@@H]2CCCC[C@H]2NC2=C(C(=O)NC2)[C@H]1c1ccccc1OC [Compound 17] was run?
Answer: 4.8 µg/mL

Question: With COc1ccccc1[C@@H]1C2=C(CNC2=O)N[C@@H]2CCCC[C@H]2N1C(=O)CCCO [Compound 19] as the molecule, how does the “A: sugar transportation activity (EC50)” value read?
Answer: 4.8 µg/mL

Question: With COc1ccccc1[C@@H]1C2=C(CNC2=O)N[C@@H]2CCCC[C@H]2N1C(=O)CCNC(=O)OCc1ccccc1 [Compound 22] as the molecule, how does the “A: sugar transportation activity (EC50)” value read?
Answer: 8 µg/mL

Question: How did the “A: sugar transportation activity (EC50)” value turn out when COc1ccccc1[C@@H]1C2=C(CNC2=O)N[C@@H]2CCCC[C@H]2N1C(=O)CCN [Compound 23] was run?
Answer: 8 µg/mL

Question: COCCC(=O)N1[C@@H]2CCCC[C@H]2NC2=C(C(=O)NC2)[C@H]1c1ccccc1OC [Compound 24] was tested. Which “A: sugar transportation activity (EC50)” value did it give?
Answer: 3.4 µg/mL

Question: Which “A: sugar transportation activity (EC50)” value does the source give for COc1ccccc1[C@@H]1C2=C(CNC2=O)N[C@@H]2CCCC[C@H]2N1C(=O)CCc1ccccc1 [Compound 25] here?
Answer: 0.9 µg/mL

Question: COc1ccccc1CCC(=O)N1[C@@H]2CCCC[C@H]2NC2=C(C(=O)NC2)[C@H]1c1ccccc1OC [Compound 26] was tested. Which “A: sugar transportation activity (EC50)” value did it give?
Answer: 4 µg/mL

Question: With COc1ccccc1[C@@H]1C2=C(CNC2=O)N[C@@H]2CCCC[C@H]2N1C(=O)CCc1ccc(F)c(F)c1 [Compound 27] as the molecule, how does the “A: sugar transportation activity (EC50)” value read?
Answer: 4.2 µg/mL

Question: COc1ccccc1[C@@H]1C2=C(CNC2=O)N[C@@H]2CCCC[C@H]2N1C(=O)CCSC [Compound 28] was tested. Which “A: sugar transportation activity (EC50)” value did it give?
Answer: 2.6 µg/mL

Question: Which “A: sugar transportation activity (EC50)” value does the source give for COc1ccccc1[C@@H]1C2=C(CNC2=O)N[C@@H]2CCCC[C@H]2N1C(=O)CC(C)=O [Compound 29] here?
Answer: 5.5 µg/mL

Question: With COc1ccccc1[C@@H]1C2=C(CNC2=O)N[C@@H]2CCCC[C@H]2N1C(=O)c1ccccn1 [Compound 33] as the molecule, how does the “A: sugar transportation activity (EC50)” value read?
Answer: 10 µg/mL

Question: COc1ccccc1[C@@H]1C2=C(CNC2=O)N[C@@H]2CCCC[C@H]2N1C(=O)c1ccncc1 [Compound 35] was tested. Which “A: sugar transportation activity (EC50)” value did it give?
Answer: 18 µg/mL

Question: With COc1ccccc1[C@@H]1C2=C(CNC2=O)N[C@@H]2CCCC[C@H]2N1C(=O)c1cnccn1 [Compound 36] as the molecule, how does the “A: sugar transportation activity (EC50)” value read?
Answer: 8.6 µg/mL

Question: COC(=O)N1[C@@H]2CCCC[C@H]2NC2=C(C(=O)NC2)[C@H]1c1ccccc1OC [Compound 37] was tested. Which “A: sugar transportation activity (EC50)” value did it give?
Answer: 6 µg/mL

Question: Which “A: sugar transportation activity (EC50)” value does the source give for CCOC(=O)N1[C@@H]2CCCC[C@H]2NC2=C(C(=O)NC2)[C@H]1c1ccccc1OC [Compound 38] here?
Answer: 4.2 µg/mL

Question: For COc1ccccc1[C@@H]1C2=C(CNC2=O)N[C@@H]2CCCC[C@H]2N1C(=O)OCc1ccccc1 [Compound 39], which “A: sugar transportation activity (EC50)” value is on record?
Answer: 6 µg/mL

Question: With COc1ccccc1[C@@H]1C2=C(CNC2=O)N[C@@H]2CCCC[C@H]2N1C(=O)Oc1ccccc1 [Compound 40] as the molecule, how does the “A: sugar transportation activity (EC50)” value read?
Answer: 11 µg/mL

Question: CCNC(=O)N1[C@@H]2CCCC[C@H]2NC2=C(C(=O)NC2)[C@H]1c1ccccc1OC [Compound 41] was tested. Which “A: sugar transportation activity (EC50)” value did it give?
Answer: 3.6 µg/mL

Question: Which “A: sugar transportation activity (EC50)” value does the source give for CCCNC(=O)N1[C@@H]2CCCC[C@H]2NC2=C(C(=O)NC2)[C@H]1c1ccccc1OC [Compound 42] here?
Answer: 7 µg/mL

Question: With CCOc1ccccc1[C@@H]1C2=C(CNC2=O)N[C@@H]2CCCC[C@H]2N1C(C)=O [Compound 46] as the molecule, how does the “A: sugar transportation activity (EC50)” value read?
Answer: 15 µg/mL

Question: With CCOc1ccccc1[C@@H]1C2=C(CNC2=O)N[C@@H]2CCCC[C@H]2N1C(=O)CC [Compound 47] as the molecule, how does the “A: sugar transportation activity (EC50)” value read?
Answer: 1.9 µg/mL

Question: Which “A: sugar transportation activity (EC50)” value does the source give for CCCC(=O)N1[C@@H]2CCCC[C@H]2NC2=C(C(=O)NC2)[C@H]1c1ccccc1OCC [Compound 48] here?
Answer: 1.3 µg/mL

Question: With CCOc1ccccc1[C@@H]1C2=C(CNC2=O)N[C@@H]2CCCC[C@H]2N1C(=O)C(F)(F)F [Compound 49] as the molecule, how does the “A: sugar transportation activity (EC50)” value read?
Answer: 5 µg/mL

Question: For CCOc1ccccc1[C@@H]1C2=C(CNC2=O)N[C@@H]2CCCC[C@H]2N1C(=O)COC(C)=O [Compound 50], which “A: sugar transportation activity (EC50)” value is on record?
Answer: 13 µg/mL

Question: With CCOc1ccccc1[C@@H]1C2=C(CNC2=O)N[C@@H]2CCCC[C@H]2N1C(=O)CO [Compound 51] as the molecule, how does the “A: sugar transportation activity (EC50)” value read?
Answer: 3.8 µg/mL

Question: CCOc1ccccc1[C@@H]1C2=C(CNC2=O)N[C@@H]2CCCC[C@H]2N1C(=O)COC [Compound 52] was tested. Which “A: sugar transportation activity (EC50)” value did it give?
Answer: 3.6 µg/mL

Question: With CCOCC(=O)N1[C@@H]2CCCC[C@H]2NC2=C(C(=O)NC2)[C@H]1c1ccccc1OCC [Compound 53] as the molecule, how does the “A: sugar transportation activity (EC50)” value read?
Answer: 4 µg/mL

Question: With CCOc1ccccc1[C@@H]1C2=C(CNC2=O)N[C@@H]2CCCC[C@H]2N1C(=O)OC [Compound 54] as the molecule, how does the “A: sugar transportation activity (EC50)” value read?
Answer: 1.5 µg/mL

Question: CCOC(=O)N1[C@@H]2CCCC[C@H]2NC2=C(C(=O)NC2)[C@H]1c1ccccc1OCC [Compound 55] was tested. Which “A: sugar transportation activity (EC50)” value did it give?
Answer: 7 µg/mL

Question: CCNC(=O)N1[C@@H]2CCCC[C@H]2NC2=C(C(=O)NC2)[C@H]1c1ccccc1OCC [Compound 56] was tested. Which “A: sugar transportation activity (EC50)” value did it give?
Answer: 12 µg/mL

Question: CC(=O)N1[C@@H]2CCCC[C@H]2NC2=C(C(=O)NC2)[C@H]1c1ccccc1OC(C)C [Compound 57] was tested. Which “A: sugar transportation activity (EC50)” value did it give?
Answer: 14 µg/mL
